Laboratory results reported in US12053446B1, “Methods for the prevention and treatment of hearing loss using Oseltamivir” (Ting Therapeutics LLC, priority 2022, dated 2024).

How the values were obtained:
adult P42 FVB mice [1] = assay: noise-induced hearing loss in adult mice, Oseltamivir pre-treatment before noise exposure; format: in vivo, mouse
Procedure: (§1) Now referring to FIG. 2A, adult P42 FVB mice began treatment with Oseltamivir administered oral gavage at 100 mg/kg body weight twice daily for three days once 45 minutes before exposure and then for two days after noise exposure. Now referring to FIG. 2B, auditory brainstem response (ABR) were recorded 14 days after noise exposure of 100 dB, 8-16 kHz octave band, for two hours. […] Control is shown as carrier. Statistical analysis was done with repeated measures ANOVA between groups. Mean±SEM, P=**<0.01, ***<0.001, compared to noise alone by two-way ANOVA with Bonferroni post-hoc test.
The experimental procedures for the data shown in FIGS. 2A-B are as follows: Animals were anesthetized with avertin. Subcutaneous needle electrodes were inserted behind the pinna (inverting), vertex of the skull (non-inverting) and base of the tail (ground). Tone bursts of 5 ms duration with 0.5 ms cosine-squared envelopes delivered at a rate of 21 stimuli per second with alternating polarity were generated using BioSigRZ software and RZ6 multi I/O processor system (Tucker-Davis Technologies, FL). Stimuli were presented as open field via a speaker (MF1: TDT, FL) placed 10 cm in front of the pinna of the animal. Evoked responses were amplified (20×), bandpass filtered (300-3,000 Hz) and average of 512 responses of 10 ms duration was recorded. […]

[2] = system: P3 FVB mouse cochlear explants; assay: cisplatin-induced hair cell death in P3 FVB mouse cochlear explants; format: cell-based
Procedure: Now referring to FIG. 1A, a representation of the chemical structure of Oseltamivir phosphate is shown. […] The explants were treated for 24 hours. […] Percent protection for compound at the tested dosages were then plotted to show dose response curves, and IC50 were calculated.
Experimental procedures for the images shown in FIG. 1C are as follows: Mice were approved by the Institutional Animal Care and Use Committee (IACUC) at the Creighton University. Inner ears were collected from the post-natal day 3 (P3) FVB mice and transferred onto a filter (Millicell, PICM03050; Millipore) soaked in culturing medium. The filter was placed in 6-well culture plates with 1.2 mL medium outside the filter. […] Cells may be maintained in culture with the aid of Matrigel as previously described in Kelley and Driver, Curr. Protoc. Neurosci.

[3] = system: inner ear cell line HEI-OC1; assay: high-throughput screen of FDA-approved drugs for cisplatin-induced cell-death protection; format: cell-based; conditions: 1,300 FDA-approved drugs screened
From the text: Oseltamivir is an oral widely used anti-viral drug. Significant protection by Oseltamivir against hearing loss is shown herein in doses equivalent to those approved for human use.

[4] = system: adult 12 weeks old CBA/CaJ mice; assay: cisplatin-induced hearing loss in adult mice, multi-dose cisplatin regimen; format: in vivo, mouse
Procedure: Now referring to FIG. 4B, mice exposed to multi-dose cisplatin treatments show reduced reduction in wave 1 amplitude 16 kHz recording form 30-90 dB SPL, and Oseltamivir treatment at the dose of 50 mg/kg increased the 16-kHz wave-1 amplitude at 90 SPL.
Now referring to FIG. 4C, Oseltamivir (10 mg/kg and 50 mg/kg doses) increased the percent of total mice surviving 40 days after beginning of cisplatin exposure. Auditory Brainstem Response threshold shifts recorded as previously described. Similar wave-1 amplitude recordings have been described Hazlitt J et al., Med. Chem. 61, 7700-7709 (2018); Teitz et al., J. Exp. Med. 215, 1187-1203 (2018).
Now referring to FIG. 5A, confocal images of myosin-VI stained basal, middle, apical turn cochlear regions show outer hair cells of mice exposed to treatment of 50 mg/kg Oseltamivir alone or exposed to cisplatin with or without treatment of 10 or 50 mg/kg Oseltamivir. Now referring to FIG. 5B, count of outer hair cells per 160 μm for cochlear regions. Mean±SEM, P=*<0.05, **<0.01, compared to noise alone by two-way ANOVA with Bonferroni post-hoc test. N=5 cochleae counted per bar. Similar Myosin VI experiments are described in Liu Z et al., PLoS One. Feb. 20, 2014; 9(2):e89377 (2014).

adult P42 FVB mice [5] = assay: noise-induced hearing loss in adult mice, Oseltamivir treatment 24 hours after noise exposure; format: in vivo, mouse
From the text: The experimental procedures for the data shown in FIGS. 2A-B are as follows: Animals were anesthetized with avertin. Subcutaneous needle electrodes were inserted behind the pinna (inverting), vertex of the skull (non-inverting) and base of the tail (ground). Tone bursts of 5 ms duration with 0.5 ms cosine-squared envelopes delivered at a rate of 21 stimuli per second with alternating polarity were generated using BioSigRZ software and RZ6 multi I/O processor system (Tucker-Davis Technologies, FL). Stimuli were presented as open field via a speaker (MF1: TDT, FL) placed 10 cm in front of the pinna of the animal. Evoked responses were amplified (20×), bandpass filtered (300-3,000 Hz) and average of 512 responses of 10 ms duration was recorded. Stimulus intensity was decreased in 5 dB increments, starting from 100 dB SPL to 0 dB SPL. Thresholds at 4, 5.6, 8, 16, 22.6, 32, 45.2, and 64 kHz were identified by visual inspection from stacked waveforms as the lowest level at which reproducible response could be identified. Before the start of every session, stimulus presenting speaker (MF1) was calibrated with a ¼″ microphone (PCB-378C10; PCB Piezotronics, NY) that was also placed 10 cm in front of the speaker. Similar experiments have been previously described in Rai V. et al., Sci Rep. 2020 Sep. 16; 10(1):15167.
as §1, with “3A,” for “2A,”, “beginning 24 hours following noise” for “once 45 minutes before”, “of 100 dB, 8-16 kHz octave band,” for “and then”, “hours.” for “days after noise exposure.”, “3B,” for “2B,”
Now referring to […], amplitudes of auditory Brainstem Response wave 1 from auditory brainstem response recording of FIG. 3A. The auditory Brainstem Response wave-1 amplitude represents the summed activity of the cochlear nerve. Mean wave-1 amplitudes was measured in the control and Oseltamivir-treated mice before and after noise exposure. Amplitudes from the 90 dB SPL stimuli were compared between groups using a two-factor ANOVA (group× frequency), and difference was detected between the noise alone group to Oseltamivir plus noise. at 14 days post-noise exposure.
Now referring to FIG. 3D, Distortion Product Otoacoustic Emissions (DPOAE) threshold shifts were measured in adult FVB mice 14 days after noise exposure of 100 dB, 8-16 kHz octave band, for two hours. DPOAE audiograms provide a direct indicator of cochlear sensitivity at the level of the OHC. […] Control is shown as carrier. Statistical analysis was done with repeated measures ANOVA between groups. Mean±SEM, P=**<0.01, ***<0.001, compared to noise alone by two-way ANOVA with Bonferroni post-hoc test.
Now referring to FIG. 3F, Oseltamivir administered post-noise exposure is shown to increase number of CtBP2 puncta. Number of CtBP2 puncta per IHC at the 16 kHz cochlear region were counted, data shown as mean±SEM, P=**<0.01, ***<0.001 by one-way ANOVA with Bonferroni post-hoc test, n=6-7 cochleae. An average of 4 CtBP2 puncta per IHC are restored compared to group exposed to noise without Oseltamivir treatment.
Experimental procedure for distortion product otoacoustic emissions (DPOAE) measurements, primary tones were set to generate 2f1-f2 distortion products at frequencies between 1 and 50 kHz, DPOAEs were measured for levels of f1 ranging from 10 to 80 dB SPL, with the levels of the f2 tone set 10 dB below that of the f1 tone. Similar experiments are described in Lukashkina A. V. et al., Scientific reports, July 12; 7(1), 5185. (2017). Similar Ctpb2/MyosinVI experiments are described in Liu Z et al., PLoS One. Feb. 20, 2014; 9(2):e89377 (2014).

## CCOC(=O)C1=C[C@@H](OC(CC)CC)[C@H](NC(C)=O)[C@@H](N)C1 [Oseltamivir, oseltamivir phosphate]
Adult P42 FVB mice [1]; 100 mg/kg oral gavage twice daily for three days, first dose 45 minutes before noise (100 dB, 8-16 kHz, two hours), ABR 14 days after noise
  protection, auditory brainstem response measurements: 24-28 dB
Adult P42 FVB mice [1]; 100 mg/kg oral twice daily, three days, starting 45 minutes before noise, 14 days after noise
  ABR threshold shift vs noise-exposed control: Significant protection against hearing loss
[2]; 3 μM Oseltamivir and 150 μM Cisplatin
  protection against cisplatin induced hair cell loss, phalloidin-stained middle turn images: shows protection
[2]; Mus musculus, Oseltamivir added 1 h before cisplatin (150 μM), 24 h, read-out: IC50 (percent protection from cisplatin-induced hair cell death)
  IC50: 450 nM
[2]; Oseltamivir alone, cochlear explants, 24 h
  LD50: > 100 µM
[3]
  hit in screen for cisplatin-induced cell-death protection: one of the best hits
[4]; 50 mg/kg Oseltamivir, 90 SPL, multi-dose cisplatin
  16-kHz wave-1 amplitude: increased
[4]; 8, 16, and 32 kHz, 10 and 50 mg/kg Oseltamivir oral twice-daily, cisplatin 3 mg/kg IP, 3 cycles
  auditory brainstem response threshold shift vs cisplatin without treatment: lower
[4]; 40 days after beginning of cisplatin exposure, 10 mg/kg and 50 mg/kg
  percent of total mice surviving: increased
[4]; multi-dose cisplatin regimen, 10 or 50 mg/kg Oseltamivir
  outer hair cells, Myosin VI stained basal, middle, apical cochlear regions: preserved outer hair cells in all regions
Adult P42 FVB mice [5]; 100 mg/kg oral twice daily, three days, beginning 24 hours after noise, 14 days after noise
  ABR threshold shift vs noise-exposed control: Significant protection against hearing loss
Adult P42 FVB mice [5]; 16 kHz cochlear region
  loss of CtBP2-puncta in inner hair cells vs noise alone: partially restores
Adult P42 FVB mice [5]; 16 kHz cochlear region, post-noise administration, average
  CtBP2 puncta per IHC restored vs noise without Oseltamivir: 4
Adult P42 FVB mice [5]; 16 kHz, 90 dB SPL, 14 days post-noise exposure
  ABR wave-1 amplitude vs noise exposure only group: higher amplitudes
Adult P42 FVB mice [5]; 14 days after noise exposure of 100 dB, 8-16 kHz, two hours
  DPOAE threshold shift vs noise-exposed control: Significant protection against hearing loss
Adult P42 FVB mice [5]; oral, 45 minutes before noise exposure and 24 hours after noise exposure, three consecutive days
  protection, auditory Brainstem Response and DPOAE measurements: 20-28 dB
Adult P42 FVB mice [5]; treatment 24 hours after noise exposure, 100, 50 and 10 mg/kg, 8, 16, 32 kHz
  protection against noise-induced hearing loss (ABR threshold shift): protects
